Source: ChEMBL document CHEMBL1201862, “PubChem BioAssay data set” (2004)
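These data come from cells grown in 96-well plates and exposed to compound for 48 hours at five concentrations. GI50 = concentration required for 50% inhibition of growth.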 Activity calls are given as the source filed them. Rule as the data show it: active = GI50 up to about 1.1 µM and inactive = higher.

What was measured:
Assay in all cases: inhibition of tumour cell growth, NCI panel, 48 h
786-0 = system: 786-0
CAKI-1 = system: CAKI-1
DU-145 = system: DU-145
HT-29 = system: HT-29
IGROV-1 = system: IGROV-1
M14 = system: M14
MOLT-4 = system: MOLT-4
Malme-3M = system: Malme-3M
NCI-H522 = system: NCI-H522
SK-MEL-28 = system: SK-MEL-28
SK-MEL-5 = system: SK-MEL-5
SW-620 = system: SW-620
T47D = system: T47D
U-251 = system: U-251
UACC-257 = system: UACC-257
UO-31 = system: UO-31
COLO 205 = system: COLO 205
NCI/ADR-RES = system: NCI/ADR-RES
SF-539 = system: SF-539
RXF 393 = system: RXF 393

Measured: GI50

Cc1ccc(/N=N/C(=O)NNc2ccc(C)cc2Br)c(Br)c1
inactive: 786-0 18.4 µM | CAKI-1 24.9 µM | DU-145 19.9 µM | HT-29 40.9 µM | IGROV-1 20.8 µM | M14 24.5 µM | MOLT-4 10.4 µM | Malme-3M 19.6 µM | NCI-H522 26.1 µM | SK-MEL-28 21.4 µM | SK-MEL-5 16.9 µM | SW-620 32.7 µM | T47D 17.8 µM | U-251 16.1 µM | UACC-257 26.8 µM | UO-31 16 µM

O=C1/C(=C/c2cccc(Cl)c2)CCCc2ccccc21
inactive: 786-0 17.8 µM | CAKI-1 24.1 µM | COLO 205 20.5 µM | DU-145 19.2 µM | HT-29 15.8 µM | IGROV-1 15.4 µM | M14 16.3 µM | MOLT-4 15.2 µM | Malme-3M 19.1 µM | NCI-H522 14.5 µM | NCI/ADR-RES 18.4 µM | SF-539 17.9 µM | SK-MEL-28 17.3 µM | SW-620 16.9 µM | U-251 15.8 µM | UACC-257 19.1 µM | UO-31 16.1 µM

c1ccc(C2=Nc3nc4ccccc4n3C(c3ccccc3)C2)cc1 (stereo unspecified)
inactive: 786-0 > 100 µM | CAKI-1 > 100 µM | COLO 205 > 100 µM | HT-29 > 100 µM | IGROV-1 > 100 µM | M14 > 100 µM | MOLT-4 > 100 µM | Malme-3M > 100 µM | NCI-H522 > 100 µM | NCI/ADR-RES > 100 µM | RXF 393 41 µM | SF-539 > 100 µM | SK-MEL-28 > 100 µM | SK-MEL-5 > 100 µM | SW-620 > 100 µM | T47D > 100 µM | U-251 > 100 µM | UACC-257 > 100 µM | UO-31 > 100 µM

Nc1ccc(-c2nc3ccc(F)cc3s2)cc1
inactive: 786-0 35.4 µM | CAKI-1 31.1 µM | COLO 205 17.9 µM | DU-145 23.7 µM | HT-29 38.2 µM | M14 36.4 µM | MOLT-4 > 100 µM | Malme-3M 51.8 µM | NCI-H522 30.8 µM | NCI/ADR-RES 33.9 µM | SF-539 36.4 µM | SK-MEL-28 60.1 µM | SK-MEL-5 15.3 µM | SW-620 51.9 µM | U-251 31.4 µM | UACC-257 43.2 µM | UO-31 26 µM

COc1cc(/C=C/C(=O)CC(=O)/C=C/c2ccc(OC(=O)CCCCC3CCSS3)c(OC)c2)ccc1OC(=O)CCCCC1CCSS1 (stereo unspecified)
inactive: 786-0 > 100 µM | COLO 205 > 100 µM | DU-145 > 100 µM | HT-29 > 100 µM | IGROV-1 > 100 µM | M14 > 100 µM | MOLT-4 > 100 µM | Malme-3M > 100 µM | NCI-H522 > 100 µM | NCI/ADR-RES > 100 µM | RXF 393 > 100 µM | SF-539 > 100 µM | SK-MEL-28 > 100 µM | SK-MEL-5 > 100 µM | SW-620 > 100 µM | U-251 > 100 µM | UACC-257 > 100 µM | UO-31 > 100 µM

CCOC(=O)CCN1C(=O)c2ccc(NC(=O)C(=O)O)cc2S1(=O)=O
inactive: 786-0 > 100 µM | CAKI-1 > 100 µM | COLO 205 > 100 µM | DU-145 > 100 µM | HT-29 > 100 µM | IGROV-1 > 100 µM | M14 > 100 µM | MOLT-4 > 100 µM | Malme-3M > 100 µM | NCI-H522 > 100 µM | NCI/ADR-RES > 100 µM | SF-539 > 100 µM | SK-MEL-28 > 100 µM | SK-MEL-5 > 100 µM | SW-620 > 100 µM | U-251 > 100 µM | UACC-257 > 100 µM | UO-31 > 100 µM

CC(=O)Nc1ccccc1[S+]([O-])c1ccccc1 (stereo unspecified)
inactive: 786-0 > 100 µM | CAKI-1 > 100 µM | COLO 205 > 100 µM | HT-29 > 100 µM | IGROV-1 > 100 µM | M14 > 100 µM | MOLT-4 > 100 µM | Malme-3M > 100 µM | NCI-H522 71.8 µM | RXF 393 > 100 µM | SF-539 > 100 µM | SK-MEL-28 > 100 µM | SK-MEL-5 > 100 µM | SW-620 > 100 µM | U-251 > 100 µM | UACC-257 > 100 µM | UO-31 > 100 µM

C=C([C@@]1(O)C[C@H]2[C@H](CCC2(OC)OC)[C@@H]2c3ccccc3O[C@@H]21)[Si](C)(C)C
inactive: 786-0 > 100 µM | CAKI-1 > 100 µM | COLO 205 > 100 µM | DU-145 > 100 µM | HT-29 > 100 µM | IGROV-1 > 100 µM | M14 > 100 µM | MOLT-4 > 100 µM | NCI-H522 89.7 µM | NCI/ADR-RES > 100 µM | SF-539 > 100 µM | SK-MEL-28 > 100 µM | SK-MEL-5 > 100 µM | SW-620 > 100 µM | T47D 69.8 µM | U-251 > 100 µM | UACC-257 > 100 µM | UO-31 76.7 µM

CCOC(=O)C(=O)Nc1nc2c(OCC)cccc2s1
inactive: 786-0 > 100 µM | CAKI-1 > 100 µM | COLO 205 > 100 µM | HT-29 > 100 µM | IGROV-1 > 100 µM | M14 > 100 µM | MOLT-4 > 100 µM | Malme-3M > 100 µM | NCI-H522 > 100 µM | RXF 393 > 100 µM | SF-539 > 100 µM | SK-MEL-28 > 100 µM | SK-MEL-5 > 100 µM | SW-620 > 100 µM | U-251 > 100 µM | UACC-257 > 100 µM | UO-31 > 100 µM

O=C(O)c1nc2ccc(C(F)(F)F)cc2nc1Nc1ccc(F)cc1
inactive: 786-0 20 µM | CAKI-1 30 µM | COLO 205 19.5 µM | DU-145 21.2 µM | HT-29 28.1 µM | IGROV-1 20.7 µM | MOLT-4 9.57 µM | Malme-3M 15.4 µM | NCI-H522 6.07 µM | NCI/ADR-RES 20.2 µM | RXF 393 14.4 µM | SK-MEL-28 37.6 µM | SK-MEL-5 18 µM | SW-620 23.6 µM | U-251 7.38 µM | UACC-257 22.3 µM | UO-31 12 µM

COc1ccccc1NC(=O)C1=C(C)NC(C)=C(C(=O)Nc2ccccc2OC)C1c1ccc(C2C(C(=O)Nc3ccccc3OC)=C(C)NC(C)=C2C(=O)Nc2ccccc2OC)cc1
inactive: 786-0 1.78 µM | CAKI-1 3.13 µM | COLO 205 3.33 µM | HT-29 1.71 µM | IGROV-1 1.99 µM | M14 1.61 µM | MOLT-4 1.19 µM | Malme-3M 2.51 µM | NCI-H522 1.8 µM | RXF 393 2.38 µM | SF-539 1.68 µM | SK-MEL-28 2.44 µM | SK-MEL-5 2.84 µM | SW-620 1.86 µM | U-251 2.52 µM | UACC-257 2.33 µM | UO-31 4.14 µM
